Experimental data published in PMC12736120, “First-in-Human Phase I Clinical Trial of SLC-391, a Novel and Selective AXL Inhibitor, in Patients with Advanced Solid Tumours” (Pharmaceuticals, 2025).

Experiment: Phase I safety and tolerability (DLTs, adverse events, laboratory, ECG)
Assay type: in vivo
Procedure: This study employed a standard 3 + 3 dose escalation design with a starting dose of 25 mg QD. […] Dose escalation decisions took into account all available data from evaluable subjects as well as PK and the safety profile of prior dose cohorts. […] There was a minimum 5-day stagger between dosing of the first and second subjects in each dose cohort. Dose escalation decisions were made by a data review committee (DRC) composed of, at minimum, the medical monitor, at least one principal investigator, and a sponsor representative, per the study DRC Plan. Dose escalation could continue until 2 or more subjects in the same dose cohort experienced a dose-limiting toxicity (DLT). DLTs were defined as Grade 3 or 4 adverse drug reactions (ADRs), with grades as defined in the National Cancer Institute Common Toxicity Criteria for Adverse Events (NCI-CTCAE) version 5.0. […] The MTD was defined as the highest dose at which no more than 1 of 6 subjects experienced a DLT during cycle 1 of the study drug. The MTD would have been exceeded if 2 or more subjects in a dose cohort of up to 6 subjects experienced a DLT. Subjects could continue treatment until disease progression, unacceptable toxicity, death, withdrawal of consent, or loss to follow-up.
Before enrolment in the study, all patients received a detailed medical history and physical examination. Clinical laboratory evaluations included clinical chemistry, complete blood count, urinalysis, coagulation factors, and a lipid panel. Other safety assessments included vital signs, physical examination, electrocardiogram, and echocardiogram with multigated acquisition (ECHO/MUGA). Safety assessments were performed on days 1, 8, 15, and 21 of cycle 1, and on day 1 of cycles 2 to 6.

[1] = Grade All, Overall Study (N = 35)
[2] = Possibly related, Overall BID (N = 15)
[3] = Possibly related, Overall QD (N = 20)
[4] = Possibly related, Overall Study (N = 35)
[5] = Probably related, Overall BID (N = 15)
[6] = Probably related, Overall QD (N = 20)
[7] = Probably related, Overall Study (N = 35)
[8] = Relatedness All, Overall BID (N = 15)
[9] = Relatedness All, Overall QD (N = 20)
[10] = Relatedness All, Overall Study (N = 35)

Nc1ncc(-c2cnn(C3CCNCC3)c2)cc1-c1nnc(CC2CC2)o1 [SLC-391, 3-(5-[cyclopropylmethyl]-1,3,4-oxadiazol-2-yl)-5-(1-[piperidin-4-yl]-1H-pyrazol-4-yl)-pyridin-2-amine]
TEAE: Musculoskeletal and connective tissue disorders [1]: 14 (40.0) n (%)
TEAE: Nausea [1]: 24 (68.6) n (%)
TEAE: Nervous system disorders [1]: 15 (42.9) n (%)
TEAE: Oedema peripheral [1]: 4 (11.4) n (%)
TEAE: Psychiatric disorders [1]: 5 (14.3) n (%)
TEAE: Pyrexia [1]: 5 (14.3) n (%)
TEAE: Renal and urinary disorders [1]: 6 (17.1) n (%)
TEAE: Respiratory, thoracic, and mediastinal disorders [1]: 19 (54.3) n (%)
TEAE: Skin and subcutaneous tissue disorders [1]: 10 (28.6) n (%)
TEAE: Urinary tract infection [1]: 4 (11.4) n (%)
TEAE: Vascular disorders [1]: 5 (14.3) n (%)
TEAE: Vomiting [1]: 17 (48.6) n (%)
TEAE: Weight decreased [1]: 6 (17.1) n (%)
Any treatment-related adverse event (TRAE) [2]: 7 (46.7%) n (%)
TRAE: Decreased appetite [2]: 1 (6.7%) n (%)
TRAE: Diarrhoea [2]: 4 (26.7%) n (%)
TRAE: Dysgeusia [2]: 1 (6.7%) n (%)
TRAE: Fatigue [2]: 3 (20.0%) n (%)
TRAE: Gastrointestinal disorders [2]: 5 (33.3%) n (%)
TRAE: General disorders and administration site conditions [2]: 3 (20.0%) n (%)
TRAE: Metabolism and nutrition disorders [2]: 1 (6.7%) n (%)
TRAE: Nausea [2]: 4 (26.7%) n (%)
TRAE: Nervous system disorders [2]: 1 (6.7%) n (%)
TRAE: Skin and subcutaneous tissue disorders [2]: 2 (13.3%) n (%)
TRAE: Vomiting [2]: 1 (6.7%) n (%)
Any treatment-related adverse event (TRAE) [3]: 8 (40.0%) n (%)
TRAE: Decreased appetite [3]: 3 (15.0%) n (%)
TRAE: Diarrhoea [3]: 5 (25.0%) n (%)
TRAE: Dysgeusia [3]: 0 n (%)
TRAE: Fatigue [3]: 2 (10.0%) n (%)
TRAE: Gastrointestinal disorders [3]: 8 (40.0%) n (%)
TRAE: General disorders and administration site conditions [3]: 3 (15.0%) n (%)
TRAE: Metabolism and nutrition disorders [3]: 4 (20.0%) n (%)
TRAE: Nausea [3]: 5 (25.0%) n (%)
TRAE: Nervous system disorders [3]: 1 (5.0%) n (%)
TRAE: Skin and subcutaneous tissue disorders [3]: 4 (20.0%) n (%)
TRAE: Vomiting [3]: 3 (15.0%) n (%)
Any treatment-related adverse event (TRAE) [4]: 15 (42.9%) n (%)
TRAE: Decreased appetite [4]: 4 (11.4%) n (%)
TRAE: Diarrhoea [4]: 9 (25.7%) n (%)
TRAE: Dysgeusia [4]: 1 (2.9%) n (%)
TRAE: Fatigue [4]: 5 (14.3%) n (%)
TRAE: Gastrointestinal disorders [4]: 13 (37.1%) n (%)
TRAE: General disorders and administration site conditions [4]: 6 (17.1%) n (%)
TRAE: Metabolism and nutrition disorders [4]: 5 (14.3%) n (%)
TRAE: Nausea [4]: 9 (25.7%) n (%)
TRAE: Nervous system disorders [4]: 2 (5.7%) n (%)
TRAE: Skin and subcutaneous tissue disorders [4]: 6 (17.1%) n (%)
TRAE: Vomiting [4]: 4 (11.4%) n (%)
Any treatment-related adverse event (TRAE) [5]: 1 (6.7%) n (%)
TRAE: Diarrhoea [5]: 1 (6.7%) n (%)
TRAE: Dysgeusia [5]: 0 n (%)
TRAE: Gastrointestinal disorders [5]: 1 (6.7%) n (%)
TRAE: Nausea [5]: 0 n (%)
TRAE: Nervous system disorders [5]: 0 n (%)
TRAE: Skin and subcutaneous tissue disorders [5]: 0 n (%)
TRAE: Vomiting [5]: 0 n (%)
Any treatment-related adverse event (TRAE) [6]: 3 (15.0%) n (%)
TRAE: Diarrhoea [6]: 0 n (%)
TRAE: Dysgeusia [6]: 1 (5.0%) n (%)
TRAE: Gastrointestinal disorders [6]: 2 (10.0%) n (%)
TRAE: Nausea [6]: 2 (10.0%) n (%)
TRAE: Nervous system disorders [6]: 2 (10.0%) n (%)
TRAE: Skin and subcutaneous tissue disorders [6]: 2 (10.0%) n (%)
TRAE: Vomiting [6]: 1 (5.0%) n (%)
Any treatment-related adverse event (TRAE) [7]: 4 (11.4%) n (%)
TRAE: Diarrhoea [7]: 1 (2.9%) n (%)
TRAE: Dysgeusia [7]: 1 (2.9%) n (%)
TRAE: Gastrointestinal disorders [7]: 3 (8.6%) n (%)
TRAE: Nausea [7]: 2 (5.7%) n (%)
TRAE: Nervous system disorders [7]: 2 (5.7%) n (%)
TRAE: Skin and subcutaneous tissue disorders [7]: 2 (5.7%) n (%)
TRAE: Vomiting [7]: 1 (2.9%) n (%)
SAEs, subjects (QD cohorts): 20.0%
TEAEs leading to treatment interruption or missed dose (QD cohorts): 20.0%
TEAEs leading to treatment or study discontinuation, subjects (QD cohorts): 20.0%
subjects with Grade 3 TEAEs (QD cohorts): 30.0%
subjects with TRAEs (QD cohorts): 90.0%
subjects with at least one TEAE (QD cohorts): 95.0%
Any treatment-related adverse event (TRAE) [8]: 13 (86.7%) n (%)
TRAE: Decreased appetite [8]: 3 (20.0%) n (%)
TRAE: Diarrhoea [8]: 7 (46.7%) n (%)
TRAE: Dysgeusia [8]: 2 (13.3%) n (%)
TRAE: Fatigue [8]: 4 (26.7%) n (%)
TRAE: Gastrointestinal disorders [8]: 11 (73.3%) n (%)
TRAE: General disorders and administration site conditions [8]: 4 (26.7%) n (%)
TRAE: Metabolism and nutrition disorders [8]: 3 (20.0%) n (%)
TRAE: Nausea [8]: 8 (53.3%) n (%)
TRAE: Nervous system disorders [8]: 2 (13.3%) n (%)
TRAE: Skin and subcutaneous tissue disorders [8]: 2 (13.3%) n (%)
TRAE: Vomiting [8]: 4 (26.7%) n (%)
Any treatment-related adverse event (TRAE) [9]: 18 (90.0%) n (%)
TRAE: Decreased appetite [9]: 5 (25.0%) n (%)
TRAE: Diarrhoea [9]: 10 (50.0%) n (%)
TRAE: Dysgeusia [9]: 2 (10.0%) n (%)
TRAE: Fatigue [9]: 5 (25.0%) n (%)
TRAE: Gastrointestinal disorders [9]: 16 (80.0%) n (%)
TRAE: General disorders and administration site conditions [9]: 6 (30.0%) n (%)
TRAE: Metabolism and nutrition disorders [9]: 6 (30.0%) n (%)
TRAE: Nausea [9]: 11 (55.0%) n (%)
TRAE: Nervous system disorders [9]: 4 (20.0%) n (%)
TRAE: Skin and subcutaneous tissue disorders [9]: 6 (30.0%) n (%)
TRAE: Vomiting [9]: 9 (45.0%) n (%)
Any treatment-related adverse event (TRAE) [10]: 31 (88.6%) n (%)
TRAE: Decreased appetite [10]: 8 (22.9%) n (%)
TRAE: Diarrhoea [10]: 17 (48.6%) n (%)
TRAE: Dysgeusia [10]: 4 (11.4%) n (%)
TRAE: Fatigue [10]: 9 (25.7%) n (%)
TRAE: Gastrointestinal disorders [10]: 27 (77.1%) n (%)
TRAE: General disorders and administration site conditions [10]: 10 (28.6%) n (%)
TRAE: Metabolism and nutrition disorders [10]: 9 (25.7%) n (%)
TRAE: Nausea [10]: 19 (54.3%) n (%)
TRAE: Nervous system disorders [10]: 6 (17.1%) n (%)
TRAE: Skin and subcutaneous tissue disorders [10]: 8 (22.9%) n (%)
TRAE: Vomiting [10]: 13 (37.1%) n (%)
deaths (after study drug discontinuation due to progressive disease): Two deaths
heme toxicity, ECG, neutrophil count, QT interval/QTcF (all subjects): no reports of heme toxicity or clinically significant abnormal ECG and neutrophil count changes, including QT interval or QTcF prolongation
TEAEs leading to drug withdrawal or study discontinuation, subjects (all subjects (7/35)): 20.0%
subjects with at least one TEAE (all subjects (34/35)): 97.1%
subjects with Grade 3 TRAEs considered related to SLC-391 (all subjects (N = 35)): 8.6%
subjects with a maximum of Grade 1 TEAEs (all subjects (N = 35)): 8.6%
subjects with a maximum of Grade 2 TEAEs (all subjects (N = 35)): 54.3%
subjects with a maximum of Grade 3 TEAEs (all subjects (N = 35)): 34.3%
subjects with dosing interrupted due to TEAEs (all subjects (N = 35)): 25.7%
subjects with one or more TRAE (all subjects (N = 35)): 88.6%
subjects with SAEs (all subjects (N = 35), eight SAEs in five subjects): 14.3%
subjects with SAEs leading to dose interruption, drug withdrawal, or study discontinuation (all subjects (N = 35), four SAEs in three subjects): 8.6%
dose recommended by the safety review committee for further investigations (based on safety profile, PK and in vitro/in vivo efficacy data): 150 mg BID
clinical chemistry-related toxicities (hypokalaemia, hypomagnesaemia, hyponatraemia, hypophosphataemia, increased blood creatinine, decreased blood zinc, all unrelated to SLC-391): Most clinical chemistry-related toxicities were Grade 1 or 2
